Test results published in patent publication US20250236608A1, “EGFR INHIBITORS” (Blueprint Medicines Corporation, priority 2022, published 2025).

Tests used:
EGFR L858R = EGFR L858R (Homo sapiens (Human), UniProt P00533, L858R); experiment: Biochemical EGFR inhibition assay, EGFR L858R; conditions: Caliper mobility shift; 1.0 mM ATP or ATP Km; read-out: Enz EGFR_L858R IC50
EGFR (d746-750) = EGFR (d746-750) (Homo sapiens (Human), UniProt P00533, DEL746-750); experiment: Biochemical EGFR inhibition assay, EGFR (d746-750); conditions: Caliper mobility shift; 1.0 mM ATP or ATP Km; read-out: Enz EGFR_Exon19-del746-750 IC50
Chain of EGFR (d746-750) (P00533 other isoform, or with tags, fused parts or gaps del 1-694/del 746-750 limits assumed): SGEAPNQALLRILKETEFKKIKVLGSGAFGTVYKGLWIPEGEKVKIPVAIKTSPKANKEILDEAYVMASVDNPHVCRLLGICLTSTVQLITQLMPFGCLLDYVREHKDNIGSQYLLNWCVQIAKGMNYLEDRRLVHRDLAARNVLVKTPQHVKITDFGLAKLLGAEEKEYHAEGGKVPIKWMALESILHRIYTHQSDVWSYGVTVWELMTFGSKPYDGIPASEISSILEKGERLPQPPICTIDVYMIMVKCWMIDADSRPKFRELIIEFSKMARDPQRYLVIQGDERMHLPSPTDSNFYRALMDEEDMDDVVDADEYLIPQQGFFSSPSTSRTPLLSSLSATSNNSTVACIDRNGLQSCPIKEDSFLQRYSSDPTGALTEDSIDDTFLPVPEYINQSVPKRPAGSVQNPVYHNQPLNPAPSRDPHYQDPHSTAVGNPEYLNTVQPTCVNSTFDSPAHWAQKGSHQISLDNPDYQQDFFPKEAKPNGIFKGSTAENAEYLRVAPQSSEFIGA

[1] = target: pEGFR (Tyr1068) in PC-9 cells (Ex19Del) (Homo sapiens (Human), UniProt P00533, DEL746-750); experiment: PC-9 pEGFR AlphaLISA assay; assay type: cell-based; conditions: 4 hours incubation, p-EGFR (Tyr1068) AlphaLISA, read-out: Ext pEGFR_PC-9 Ex19Del IC50
Chain of pEGFR (Tyr1068) in PC-9 cells (Ex19Del) (P00533 other isoform, or with tags, fused parts or gaps del 746-750): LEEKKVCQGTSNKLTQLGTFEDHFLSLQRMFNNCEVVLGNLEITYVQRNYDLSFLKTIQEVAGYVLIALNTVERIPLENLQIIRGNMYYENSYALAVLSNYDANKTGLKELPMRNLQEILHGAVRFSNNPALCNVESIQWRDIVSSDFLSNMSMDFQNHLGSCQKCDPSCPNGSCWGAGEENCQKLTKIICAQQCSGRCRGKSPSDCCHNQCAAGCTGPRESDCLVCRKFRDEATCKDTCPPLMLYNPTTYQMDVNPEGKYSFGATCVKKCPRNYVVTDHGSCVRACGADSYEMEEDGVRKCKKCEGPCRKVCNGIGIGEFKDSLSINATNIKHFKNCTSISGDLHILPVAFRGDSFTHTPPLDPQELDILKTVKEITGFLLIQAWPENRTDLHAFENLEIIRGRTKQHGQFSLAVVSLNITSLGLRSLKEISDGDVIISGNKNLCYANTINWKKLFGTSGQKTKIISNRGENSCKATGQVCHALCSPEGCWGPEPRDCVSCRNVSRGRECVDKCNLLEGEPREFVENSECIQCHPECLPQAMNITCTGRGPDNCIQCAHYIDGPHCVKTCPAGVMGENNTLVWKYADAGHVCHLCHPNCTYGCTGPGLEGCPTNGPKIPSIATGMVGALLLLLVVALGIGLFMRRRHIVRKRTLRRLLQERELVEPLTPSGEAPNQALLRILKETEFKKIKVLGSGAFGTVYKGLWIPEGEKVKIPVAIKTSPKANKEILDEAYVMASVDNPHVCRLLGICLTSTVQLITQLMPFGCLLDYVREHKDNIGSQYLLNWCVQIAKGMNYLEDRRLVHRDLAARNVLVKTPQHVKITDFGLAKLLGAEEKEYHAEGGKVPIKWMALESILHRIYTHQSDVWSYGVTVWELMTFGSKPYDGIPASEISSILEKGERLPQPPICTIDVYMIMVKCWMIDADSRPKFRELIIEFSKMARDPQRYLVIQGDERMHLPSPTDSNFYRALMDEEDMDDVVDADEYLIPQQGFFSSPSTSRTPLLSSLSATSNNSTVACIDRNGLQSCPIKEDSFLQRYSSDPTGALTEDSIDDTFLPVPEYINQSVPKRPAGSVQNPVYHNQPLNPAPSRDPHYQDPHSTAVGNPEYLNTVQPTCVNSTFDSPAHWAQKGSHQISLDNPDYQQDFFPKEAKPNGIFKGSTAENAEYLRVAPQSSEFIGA
Procedure, shortened: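 Phospho-EGFR (Tyr1068) was quantified by AlphaLISA SureFire Ultra in lysates of PC-9 cells exposed for 4 h to compound (4-fold, 10-point dilutions).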

Chain of EGFR L858R (P00533 25-1210 L858R): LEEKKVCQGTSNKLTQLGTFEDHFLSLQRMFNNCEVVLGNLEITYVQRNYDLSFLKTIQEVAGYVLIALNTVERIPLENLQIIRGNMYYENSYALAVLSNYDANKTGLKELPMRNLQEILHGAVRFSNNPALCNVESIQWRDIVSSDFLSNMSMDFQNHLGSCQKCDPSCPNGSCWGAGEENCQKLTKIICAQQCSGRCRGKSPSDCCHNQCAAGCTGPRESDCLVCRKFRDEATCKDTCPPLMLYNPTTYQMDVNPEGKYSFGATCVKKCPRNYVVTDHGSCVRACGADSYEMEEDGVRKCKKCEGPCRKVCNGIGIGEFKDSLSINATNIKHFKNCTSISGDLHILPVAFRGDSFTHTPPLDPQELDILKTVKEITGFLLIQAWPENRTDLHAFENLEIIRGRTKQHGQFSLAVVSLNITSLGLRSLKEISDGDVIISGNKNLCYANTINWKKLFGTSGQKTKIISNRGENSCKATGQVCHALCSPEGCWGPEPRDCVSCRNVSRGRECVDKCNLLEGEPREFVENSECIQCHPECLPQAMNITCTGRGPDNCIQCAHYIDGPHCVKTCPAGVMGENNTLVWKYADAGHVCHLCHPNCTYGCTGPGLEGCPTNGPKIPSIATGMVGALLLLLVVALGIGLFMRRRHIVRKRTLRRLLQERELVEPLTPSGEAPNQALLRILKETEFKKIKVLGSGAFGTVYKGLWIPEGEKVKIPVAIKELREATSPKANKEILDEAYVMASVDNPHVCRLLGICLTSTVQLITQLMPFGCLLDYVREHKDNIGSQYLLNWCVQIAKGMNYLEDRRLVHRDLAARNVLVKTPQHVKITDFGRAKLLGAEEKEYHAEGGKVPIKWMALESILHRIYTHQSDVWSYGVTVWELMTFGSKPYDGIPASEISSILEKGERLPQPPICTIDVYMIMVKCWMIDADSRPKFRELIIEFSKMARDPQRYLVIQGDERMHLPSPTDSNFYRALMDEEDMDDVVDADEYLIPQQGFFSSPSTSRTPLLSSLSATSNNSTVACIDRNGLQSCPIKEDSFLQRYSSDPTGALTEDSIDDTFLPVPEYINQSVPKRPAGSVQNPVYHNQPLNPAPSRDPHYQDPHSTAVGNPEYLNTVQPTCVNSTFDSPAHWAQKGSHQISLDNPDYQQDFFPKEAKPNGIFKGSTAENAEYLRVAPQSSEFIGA

| SMILES | IC50 (EGFR L858R) | IC50 (EGFR (d746-750)) | IC50 [1] |
| --- | --- | --- | --- |
| COc1cc2ncnc(-c3cn(C)nc3-c3ccccc3)c2cc1NC(=O)N1CCN(C)[C@@H](C)[C@H]1C (single isomer, unassigned) [Example 180, (2R,3S)—N-(7-methoxy-4-(1-methyl-3-phenyl-1H-pyrazol-4-yl)quinazolin-6-yl)-2,3,4-trimethylpiperazine-1-carboxamide or (2S,3R)—N-(7-methoxy-4-(1-methyl-3-phenyl-1H-pyrazol-4-yl)quinazolin-6-yl)-2,3,4-trimethylpiperazine-1-carboxamide] | 3.8 nM | 2.2 nM | 4 nM |
| COc1cc2ncnc(-c3cn(C)nc3-c3ccccc3)c2cc1NC(=O)C12COCC1C2 (stereo not drawn) [Example 278, N-(7-methoxy-4-(1-methyl-3-phenyl-1H-pyrazol-4-yl)quinazolin-6-yl)-3-oxabicyclo[3.1.0]hexane-1-carboxamide] | 4.5 nM | 2.3 nM | 7.8 nM |
| COc1cc2ncnc(-c3cn(C)nc3-c3ccccc3)c2nc1NC(=O)c1cn(C(C)C)nc1C [Example 310, 1-isopropyl-N-(7-methoxy-4-(1-methyl-3-phenyl-1H-pyrazol-4-yl)pyrido[3,2-d]pyrimidin-6-yl)-3-methyl-1H-pyrazole-4-carboxamide] | 3.4 nM | 1.3 nM | 3.1 nM |
| COc1cc2ncnc(-c3cn(C)nc3-c3ccccc3)c2nc1NC(=O)[C@]12COC[C@H]1C2 (single isomer, unassigned) [Example 432, (1S,5S)—N-(7-methoxy-4-(1-methyl-3-phenyl-1H-pyrazol-4-yl)pyrido[3,2-d]pyrimidin-6-yl)-3-oxabicyclo[3.1.0]hexane-1-carboxamide or (1R,5R)—N-(7-methoxy-4-(1-methyl-3-phenyl-1H-pyrazol-4-yl)pyrido[3,2-d]pyrimidin-6-yl)-3-oxabicyclo[3.1.0]hexane-1-carboxamide] | 1.9 nM | 0.9 nM | 2.5 nM |
| COc1cc2ncnc(-c3cn(C)nc3-c3ccccc3)c2nc1-c1cccc2c1OCC(=O)N2 [Example 154, 8-(7-methoxy-4-(1-methyl-3-phenyl-1H-pyrazol-4-yl)pyrido[3,2-d]pyrimidin-6-yl)-2H-benzo[b][1,4]oxazin-3(4H)-one] | 3.8 nM | 1.1 nM | 13 nM |

Further compounds by falling IC50 (EGFR L858R), results first:

| IC50 (EGFR L858R) | IC50 (EGFR (d746-750)) | IC50 [1] | SMILES |
| --- | --- | --- | --- |
| 6.8 nM | 2 nM | 3.5 nM | CN(C)CCOc1cc2ncnc(-c3cn(C)nc3-c3ccccc3)c2nc1NC(=O)C1(C(F)(F)F)CC1 [Example 434, N-(7-(2-(dimethylamino)ethoxy)-4-(1-methyl-3-phenyl-1H-pyrazol-4-yl)pyrido[3,2-d]pyrimidin-6-yl)-1-(trifluoromethyl)cyclopropane-1-carboxamide] |
| 3.5 nM | 2 nM | 2.8 nM | CCC(=O)Nc1cc2c(-c3cn(C)nc3-c3ccccc3)ncnc2cc1C#CCN1CCOCC1 [Example 451, N-(4-(1-methyl-3-phenyl-1H-pyrazol-4-yl)-7-(3-morpholinoprop-1-yn-1-yl)quinazolin-6-yl)propionamide] |
| 1.4 nM | 1.1 nM | 0.6 nM | CCOc1cc2ncnc(-c3cn(C)nc3-c3ccccc3)c2cc1NC(=O)C1CC1 [Example 306, N-(7-ethoxy-4-(1-methyl-3-phenyl-1H-pyrazol-4-yl)quinazolin-6-yl)cyclopropanecarboxamide] |
| 1.3 nM | 0.9 nM | 0.9 nM | COc1cc2ncnc(-c3cn(CC(F)F)nc3-c3ccccc3)c2cc1NC(=O)C(F)F [Example 269, N-(4-(1-(2,2-difluoroethyl)-3-phenyl-1H-pyrazol-4-yl)-7-methoxyquinazolin-6-yl)-2,2-difluoroacetamide] |
| 1 nM | 0.7 nM | 0.8 nM | COc1cc2ncnc(-c3cn(C)nc3-c3ccccc3)c2cc1NC(=O)c1nc(C)ccc1F [Example 330, 3-fluoro-N-(7-methoxy-4-(1-methyl-3-phenyl-1H-pyrazol-4-yl)quinazolin-6-yl)-6-methylpicolinamide] |
